≈ marks a conversion by molar mass, not a printed value.
What was measured:
Type in all cases: functional, cell-based
[1] = test system: MKN-74; assay: Cytotoxicity against human MKN74 cells after 48 hrs by sulforhodamine B assay; conditions: MKN-74, 48 h
[2] = test system: MKN-7; assay: Cytotoxicity against human MKN7 cells after 48 hrs by sulforhodamine B assay; conditions: MKN-7, 48 h
[3] = test system: KM12; assay: Cytotoxicity against human KM12 cells after 48 hrs by sulforhodamine B assay; conditions: KM12, 48 h
[4] = test system: SK-OV-3; assay: Cytotoxicity against human SKOV3 cells after 48 hrs by sulforhodamine B assay; conditions: SK-OV-3, 48 h
[5] = test system: A549; assay: Cytotoxicity against human A549 cells after 48 hrs by sulforhodamine B assay; conditions: A549, 48 h
[6] = test system: OVCAR-4; assay: Cytotoxicity against human OVCAR4 cells after 48 hrs by sulforhodamine B assay; conditions: OVCAR-4, 48 h
[7] = test system: U-251; assay: Cytotoxicity against human U251 cells after 48 hrs by sulforhodamine B assay; conditions: U-251, 48 h
[8] = test system: HCT-116; assay: Cytotoxicity against human HCT116 cells after 48 hrs by sulforhodamine B assay; conditions: HCT-116, 48 h
[9] = test system: SF-268; assay: Cytotoxicity against human SF268 cells after 48 hrs by sulforhodamine B assay; conditions: SF-268, 48 h
[10] = test system: LOX IMVI; assay: Cytotoxicity against human LOXIMVI cells after 48 hrs by sulforhodamine B assay
[11] = test system: HT-29; assay: Cytotoxicity against human HT-29 cells after 48 hrs by sulforhodamine B assay; conditions: HT-29, 48 h
[12] = test system: NCI-H23; assay: Cytotoxicity against human NCI-H23 cells after 48 hrs by sulforhodamine B assay; conditions: NCI-H23, 48 h
[13] = Cytotoxicity against human MKN1 cells after 48 hrs by sulforhodamine B assay; conditions: MKN-1, 48 h
[14] = test system: DMS-273; assay: Cytotoxicity against human DMS273 cells after 48 hrs by sulforhodamine B assay; conditions: DMS-273, 48 h
[15] = test system: SF-539; assay: Cytotoxicity against human SF539 cells after 48 hrs by sulforhodamine B assay; conditions: SF-539, 48 h
[16] = test system: NCI-H460; assay: Cytotoxicity against human NCI-H460 cells after 48 hrs by sulforhodamine B assay; conditions: NCI-H460, 48 h
[17] = test system: ACHN; assay: Cytotoxicity against human ACHN cells after 48 hrs by sulforhodamine B assay
[18] = test system: MDA-MB-231; assay: Cytotoxicity against human MDA-MB-231 cells after 48 hrs by sulforhodamine B assay; conditions: MDA-MB-231, 48 h
[19] = test system: HCC 2998; assay: Cytotoxicity against human HCC2998 cells after 48 hrs by sulforhodamine B assay; conditions: HCC 2998, 48 h
[20] = test system: PC-3; assay: Cytotoxicity against human PC3 cells after 48 hrs by sulforhodamine B assay; conditions: PC-3, 48 h
[21] = test system: MKN-45; assay: Cytotoxicity against human MKN45 cells after 48 hrs by sulforhodamine B assay; conditions: MKN-45, 48 h
[22] = test system: OVCAR-5; assay: Cytotoxicity against human OVCAR5 cells after 48 hrs by sulforhodamine B assay; conditions: OVCAR-5, 48 h
[23] = test system: DMS-114; assay: Cytotoxicity against human DMS114 cells after 48 hrs by sulforhodamine B assay; conditions: DMS-114, 48 h
[24] = test system: HCT-15; assay: Cytotoxicity against human HCT15 cells after 48 hrs by sulforhodamine B assay; conditions: HCT-15, 48 h
[25] = test system: SF-295; assay: Cytotoxicity against human SF295 cells after 48 hrs by sulforhodamine B assay; conditions: SF-295, 48 h
[26] = Cytotoxicity against human HBC5 cells after 48 hrs by sulforhodamine B assay; conditions: HBC5, 48 h
[27] = test system: DU-145; assay: Cytotoxicity against human DU145 cells after 48 hrs by sulforhodamine B assay; conditions: DU-145, 48 h
[28] = test system: NCI-H226; assay: Cytotoxicity against human NCI-H226 cells after 48 hrs by sulforhodamine B assay; conditions: NCI-H226, 48 h
[29] = test system: SNB-75; assay: Cytotoxicity against human SNB75 cells after 48 hrs by sulforhodamine B assay; conditions: SNB-75, 48 h
[30] = test system: St-4; assay: Cytotoxicity against human St-4 cells after 48 hrs by sulforhodamine B assay; conditions: St-4, 48 h
[31] = test system: MCF7; assay: Cytotoxicity against human MCF7 cells after 48 hrs by sulforhodamine B assay; conditions: MCF7, 48 h
[32] = test system: MKN-28; assay: Cytotoxicity against human MKN28 cells after 48 hrs by sulforhodamine B assay; conditions: MKN-28, 48 h
[33] = test system: OVCAR-3; assay: Cytotoxicity against human OVCAR-3 cells after 48 hrs by sulforhodamine B assay; conditions: OVCAR-3, 48 h
[34] = test system: SNB-78; assay: Cytotoxicity against human SNB78 cells after 48 hrs by sulforhodamine B assay; conditions: SNB-78, 48 h
[35] = test system: OVCAR-8; assay: Cytotoxicity against human OVCAR8 cells after 48 hrs by sulforhodamine B assay; conditions: OVCAR-8, 48 h
[36] = test system: NCI-H522; assay: Cytotoxicity against human NCI-H522 cells after 48 hrs by sulforhodamine B assay; conditions: NCI-H522, 48 h
[37] = Cytotoxicity against human BSY1 cells after 48 hrs by sulforhodamine B assay; conditions: BSY-1, 48 h
[38] = Cytotoxicity against human HBC4 cells after 48 hrs by sulforhodamine B assay; conditions: HBC4, 48 h
[39] = Cytotoxicity against human RXF631L cells after 48 hrs by sulforhodamine B assay; conditions: RXF 631, 48 h

C=C1C(=O)O[C@H]2/C=C(\C)CC/C=C(\C)CC/C=C(\C)CC[C@H]12
IC50 [1]: 0.81 µg/mL (≈ 2.7 µM)
IC50 [2]: 0.96 µg/mL (≈ 3.2 µM)
IC50 [3]: 1.32 µg/mL (≈ 4.39 µM)
IC50 [4]: 6.6 µg/mL (≈ 22 µM)
IC50 [5]: 1.26 µg/mL (≈ 4.19 µM)
IC50 [6]: 2.25 µg/mL (≈ 7.49 µM)
IC50 [7]: 4.2 µg/mL (≈ 14 µM)
IC50 [8]: 1.17 µg/mL (≈ 3.89 µM)
IC50 [9]: 3 µg/mL (≈ 9.99 µM)
IC50 [10]: 0.72 µg/mL (≈ 2.4 µM)
IC50 [11]: 1.47 µg/mL (≈ 4.89 µM)
IC50 [12]: 3.6 µg/mL (≈ 12 µM)
IC50 [13]: 1.2 µg/mL (≈ 3.99 µM)
IC50 [14]: 1.11 µg/mL (≈ 3.69 µM)
IC50 [15]: 1.56 µg/mL (≈ 5.19 µM)
IC50 [16]: 3.3 µg/mL (≈ 11 µM)
IC50 [17]: 3 µg/mL (≈ 9.99 µM)
IC50 [18]: 4.5 µg/mL (≈ 15 µM)
IC50 [19]: 1.29 µg/mL (≈ 4.29 µM)
IC50 [20]: 1.11 µg/mL (≈ 3.69 µM)
IC50 [21]: 3 µg/mL (≈ 9.99 µM)
IC50 [22]: 2.31 µg/mL (≈ 7.69 µM)
IC50 [23]: 3.6 µg/mL (≈ 12 µM)
IC50 [24]: 2.01 µg/mL (≈ 6.69 µM)
IC50 [25]: 3.9 µg/mL (≈ 13 µM)
IC50 [26]: 2.13 µg/mL (≈ 7.09 µM)
IC50 [27]: 3.3 µg/mL (≈ 11 µM)
IC50 [28]: 1.14 µg/mL (≈ 3.79 µM)
IC50 [29]: 3.3 µg/mL (≈ 11 µM)
IC50 [30]: 3.9 µg/mL (≈ 13 µM)
IC50 [31]: 0.9 µg/mL (≈ 3 µM)
IC50 [32]: 0.96 µg/mL (≈ 3.2 µM)
IC50 [33]: 1.14 µg/mL (≈ 3.79 µM)
IC50 [34]: 1.59 µg/mL (≈ 5.29 µM)
IC50 [35]: 0.93 µg/mL (≈ 3.1 µM)
IC50 [36]: 0.66 µg/mL (≈ 2.2 µM)
IC50 [37]: 1.35 µg/mL (≈ 4.49 µM)
IC50 [38]: 1.62 µg/mL (≈ 5.39 µM)
IC50 [39]: 4.8 µg/mL (≈ 16 µM)
